This note sets out measurements from patent US6413228B1, “Devices, methods and systems for collecting material from a breast duct” (Pro Duct Health, Inc., priority 1998, dated 2002).

For the assay, the system named is breast ducts of live rabbits. Kind of assay: Mannitol solution introduced into breast ducts of live rabbit: ductal fluid collection. The format is in vivo, New Zealand rabbit. Conditions: for recovery (out-flow liquid collected from duct): about an hour after injection. Here is the method: The objective of these experiments was to test the effects of the introduction of a solution containing mannitol on the secretion of fluid from the breast ducts of live rabbits. New Zealand rabbit #3242, female, from Kraelik Farm in California weighing 4.1 kg was used. The rabbit was anesthetized by injection of 200 mg of ketamine and 40 mg of Zylazine. A second injection of 100 mg of ketamine and 20 mg of xylazine was made 2 hours later to maintain the rabbit in a deep plane of anesthesia. The thorax and abdomen of the rabbit was shaved to expose the breasts and nipples.
A single lumen blue color catheter (O.D. 0.23″ ID 0.017; O.D. at the tip 0.011″-0.012″) was inserted into a duct in each nipple. Three nipples were tested, and 2 ducts per nipple were accessed with a catheter. The nipples were identified A, B, and C.
A duct on nipple A was injected with 0.20 ml of a 12.5% solution of D-Mannitol in H2O (available from Sigma Chemicals, St. Louis, Mo. cat# M-9546 lot 6710402: C6H14O6 FW 182.2) with a single catheter. The control duct on nipple A was injected with 0.20 ml of phosphate buffered saline (PBS). A microfuge tube was attached to the end of each catheter to collect out flow liquid. Ten minutes later 0.2 ml of a 12.5% solution of D-Mannitol in H2O was injected into the first duct and the second duct was injected with 0.20 ml of phosphate buffered saline, for a total volume injected in each duct of 0.40 ml.
A duct on nipple B was injected with 0.5 ml of a 12.5% solution of D-Mannitol in H2O with a single catheter. The control duct on nipple B was injected with […] of phosphate buffered saline (PBS). A microfuge tube was attached to the end of each catheter to collect out-flow liquid.
A duct on nipple C was injected with 0.7 ml of a 12.5% solution of D-Mannitol in H2O with a single catheter. The control duct on nipple C was injected with 0.70 ml of phosphate buffered saline (PBS). A microfuge tube was attached to the end of each catheter to collect out flow liquid.
About an hour after the fluid containing mannitol or PBS was injected into the ducts via the catheters, the microfuge tubes were checked for whether any fluid was returned.
Davidson green dye (1 ul) was added to each microfuge tube containing fluid for the purpose of taking a picture. The rabbit was euthanized by IV injection of supersaturated KC1. PBS (1.5 ul) was added to each collection. The cells were spun onto Shandon coated slide using megafunnel and cytospin-3 machine (Shandon, Inc. located in Pittsburgh, Pa.) at a speed of 1500/per minute for 15 minutes. The cells were fixed on the slide in 95% ethanol for 10 minutes. The cells were stained using Hematoxylin and Eosin (HE) method of cytology of collected fluid.

For `OC[C@@H](O)[C@@H](O)[C@H](O)[C@H](O)CO` [mannitol, D-Mannitol], the “ducts from which fluid can be collected” value (ducts injected with mannitol solution (PBS control: 1 out of 3)) is “three out of three”. In addition, the “recovery (out-flow liquid collected from duct)” value by setting is: (nipple A, duct A1, 0.4 ml mannitol 12.5% in H2O injected intraductally (2 x 0.2 ml)) 310 ul liquid; (nipple B, duct B1, 0.5 ml mannitol 12.5% in H2O injected intraductally) 490 ul liquid; (nipple C, duct C1, 0.7 ml mannitol 12.5% in H2O injected intraductally) 280 ul liquid.
